Measurements as given in patent US9616062B2, “Cyclin dependent kinase inhibitors and methods of use” (priority 2009, dated 2017).

How the values were obtained:
[1] = tested on: primary human renal proximal tubule epithelial cells; assay: Protection from etoposide-induced cell death, CellTiter-Glo on day 7; assay type: cell-based; settings: 16 h pretreatment, 2.5 μM etoposide 8 h, 7 days recovery
Procedure: FIG. 5: CDK4/6 inhibition protects primary human renal proximal tubule epithelial cells from etoposide-induced cell death. PD0332991 inhibits chemotherapy-induced cytotoxicity in a cdk4/6 dependent manner. Primary human renal proximal tubule epithelial cells were incubated with 30 nM or 100 nM PD0332991 for 16 hours. Etoposide (Etop, 2.5 μM) was added for 8 hours. Following incubation, the media was replaced with fresh media and the cells were incubated for an additional 7 days. On day 7, cell proliferation was assessed using CellTiter-Glo® (Promega, Madison, Wis., United States of America). Error bars show +/−standard deviation.
Primary normal human renal proximal epithelial cells (American Type Culture Collection (ATCC), Manassas, Va., United States of America) were cultured in renal epithelial cell basal media supplemented with renal epithelial cell growth kit according to the manufacturer's recommendations. […] For the γH2AX assay, cells were fixed, permeabilized, and stained with anti-γH2AX as per γH2AX Flow Kit (Millipore, Billerica, Mass., United States of America). γH2AX levels were assessed by flow cytometry. Cell proliferation was assessed by seeding 1×10^3 cells per well in a 96-well tissue culture plate in 100 μL of growth medium. […] 100 μL of TOXILIGHT™ reagent is added and incubated for 5 minutes and read in a luminometer at 1 second/well. […]

[2] = tested on: murine splenic B and T cells; assay: Splenic lymphocyte proliferation in mice (Ki67 or BrdU staining); assay type: in vivo, mouse; settings: 24 hours treatment, unstimulated mice
Procedure: Animals were treated with CDK4/6 inhibitor (PD0332991, open bars) or vehicle (shaded bars) for 24 hours and euthanized. Splenocytes were isolated and stained for B and T cell markers. After gating on appropriate populations, Ki67 staining was performed as an indicator of proliferation and S-phase. Error bars show +/−SEM.
FIG. 22: CDK4/6 inhibitors block B-cell proliferation. Animals were treated with CDK4/6 inhibitor (150 mg/kg by daily oral gavage) or vehicle for 4 days, and BrdU in the drinking water for 3 days. After BrdU treatment, animals were euthanized. Splenocytes were isolated and stained for B cell markers. After gating on appropriate populations, BrdU staining was performed as an indicator of proliferation.
Cohorts of wild type mice were treated with vehicle or a CDK4/6 inhibitor as in FIG. 11. […] Unstimulated mice were treated for 24 hours with PD0332991 and homeostatic B cell proliferation measured by Ki67 staining after appropriate sorting. Similar results were obtained using BrdU incorporation to measure splenic B cell proliferation. Similar experiments were undertaken in human cells with B cell receptor stimulation as described in FIG. 12.

[3] = tested on: primary human renal proximal tubule epithelial cells; assay: Cell cycle analysis (propidium iodide, flow cytometry); assay type: cell-based; settings: 16 hours
Procedure: Representative histograms of cell cycle analysis of Primary human renal proximal tubule epithelial cells treated with varying concentrations of PD0332991 for 16 hours. Cells were harvested, fixed, stained, and analyzed by flow cytometry. Data was fitted using Mod-Fit™ software from Verity (Verity Software House, Topsham, Me., United States of America).
Cell cycle analysis of Primary human renal proximal tubule epithelial cells treated with varying concentrations of PD0332991 for 16 hours. Cells were harvested, fixed, stained, and analyzed by flow cytometry. Data was fitted using Mod-Fit™ software from Verity (Verity Software House, Topsham, Me., United States of America). Corresponding % of cells in G1 (diamonds), G2/M (squares) and S (triangles) are shown on the graph.
Primary normal human renal proximal epithelial cells (American Type Culture Collection (ATCC), Manassas, Va., United States of America) were cultured in renal epithelial cell basal media supplemented with renal epithelial cell growth kit according to the manufacturer's recommendations. […] For the γH2AX assay, cells were fixed, permeabilized, and stained with anti-γH2AX as per γH2AX Flow Kit (Millipore, Billerica, Mass., United States of America). γH2AX levels were assessed by flow cytometry. Cell proliferation was assessed by seeding 1×10^3 cells per well in a 96-well tissue culture plate in 100 μL of growth medium. […]

[4] = tested on: RB-deficient small cell lung cancer cell lines (H69, H82, H209, H345); assay: SCLC cell proliferation, WST-1, RB-deficient lines; assay type: cell-based; settings: 100 nM, all four RB-deficient cell lines
Procedure: FIG. 8: CDK4/6 inhibition potentiates proliferation of Rb deficient cells. […] Cell proliferation was assessed using WST-1 reagent. Each data point represents the mean of four replicates +/−SEM. CDK4/6 inhibition increases cell proliferation of RB-deficient cell lines.
Primary normal human renal proximal epithelial cells (American Type Culture Collection (ATCC), Manassas, Va., United States of America) were cultured in renal epithelial cell basal media supplemented with renal epithelial cell growth kit according to the manufacturer's recommendations. […] For the γH2AX assay, cells were fixed, permeabilized, and stained with anti-γH2AX as per γH2AX Flow Kit (Millipore, Billerica, Mass., United States of America). γH2AX levels were assessed by flow cytometry. Cell proliferation was assessed by seeding 1×10^3 cells per well in a 96-well tissue culture plate in 100 μL of growth medium. […] At the end of the recovery period, cell number was quantified using CellTiter-Glo® (Promega, Fitchburg, Wis., United States of America) or WST-1 reagent (TaKaRa Bio USA, Madison, Wis., United States of America). Cellular cytotoxicity was assessed using the TOXILIGHT™ Bioassay kit (Lonza, Basel, Switzerland) which measures cytolysis by quantifying the release of Adenylate Kinase into the culture media. […] 100 μL of TOXILIGHT™ reagent is added and incubated for 5 minutes and read in a luminometer at 1 second/well. […]

CC(=O)c1c(C)c2cnc(Nc3ccc(N4CCNCC4)cn3)nc2n(C2CCCC2)c1=O [PD0332991, 6-acetyl-8-cyclopentyl-5-methyl-2-(5-piperazin-1-yl-pyridin-2-ylamino)-8H-pyrido-[2,3-d]-pyrimidin-7-one]
protection from etoposide-induced cell death [1]: protection from etoposide induced cell death
splenocyte B and T cell proliferation (Ki67 staining) [2]: blocks T and B cell proliferation
cell cycle arrest (G0/G1, G2/M, S fractions) ([3]; 0, 10 nM-1 uM): induces a G1 arrest
cytotoxicity during G1 arrest ([3]; varying concentrations): without evidence of cytotoxicity
cell proliferation (WST-1) vs DMSO [4]: increased
